# According to ChEMBL document CHEMBL1201862, “PubChem BioAssay data set” (2004):
#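 Interpolation was linear, between the two tested concentrations surrounding the appropriate level; five concentrations were tested over 48 hours in 96-well plates. GI50: concentration for 50% inhibition of growth.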 Calls of active or inactive are those of the source. Cut-off read from the data, not from the text of the source: active = GI50 up to about 1.1 µM and inactive = higher.
# Tests used:
# Experiment in all cases: NCI tumour cell line growth inhibition, 48 h
# HCT-116 = system: HCT-116
# TK-10 = system: TK-10
# HOP-62 = system: HOP-62
# EKVX = system: EKVX
# LOX IMVI = system: LOX IMVI
# Hs-578T = system: Hs-578T
# ACHN = system: ACHN
# RPMI-8226 = system: RPMI-8226
# UO-31 = system: UO-31
# IGROV-1 = system: IGROV-1
# SF-268 = system: SF-268
# 786-0 = system: 786-0
# U-251 = system: U-251
# SW-620 = system: SW-620
# CAKI-1 = system: CAKI-1
# HT-29 = system: HT-29
# SK-MEL-2 = system: SK-MEL-2
# NCI-H460 = system: NCI-H460
# NCI-H226 = system: NCI-H226
# OVCAR-4 = system: OVCAR-4
# MDA-MB-231 = system: MDA-MB-231
# MCF7 = system: MCF7
# HL-60 = system: HL-60
# SF-295 = system: SF-295
# SF-539 = system: SF-539
# SN12C = system: SN12C
# KM12 = system: KM12
# OVCAR-3 = system: OVCAR-3
# A549 = system: A549
# HCC 2998 = system: HCC 2998
# SNB-19 = system: SNB-19
# SK-MEL-5 = system: SK-MEL-5
# NCI/ADR-RES = system: NCI/ADR-RES
# NCI-H522 = system: NCI-H522
# DU-145 = system: DU-145
# COLO 205 = system: COLO 205
# NCI-H23 = system: NCI-H23
# MDA-N = system: MDA-N
# OVCAR-5 = system: OVCAR-5
# UACC-257 = system: UACC-257
# A498 = system: A498
# SK-OV-3 = system: SK-OV-3
# SR = system: SR
# T47D = system: T47D
# MDA-MB-435 = system: MDA-MB-435
# SNB-75 = system: SNB-75
# BT-549 = system: BT-549
# MOLT-4 = system: MOLT-4
# OVCAR-8 = system: OVCAR-8
# UACC-62 = system: UACC-62
# RXF 393 = system: RXF 393
# HCT-15 = system: HCT-15
# SK-MEL-28 = system: SK-MEL-28
# M14 = system: M14
# HOP-92 = system: HOP-92
# PC-3 = system: PC-3
# CCRF-CEM = system: CCRF-CEM
# K562 = system: K562
smiles,measurement,setting,value
C=C1C(C(=O)OC)[C@H]1C(=O)OC (some centres not stated),GI50,HCT-116,> 100 µM (inactive)
same,GI50,TK-10,> 100 µM (inactive)
same,GI50,HOP-62,> 100 µM (inactive)
same,GI50,EKVX,> 100 µM (inactive)
same,GI50,LOX IMVI,> 100 µM (inactive)
same,GI50,Hs-578T,> 100 µM (inactive)
same,GI50,ACHN,> 100 µM (inactive)
same,GI50,RPMI-8226,> 100 µM (inactive)
same,GI50,UO-31,> 100 µM (inactive)
same,GI50,IGROV-1,> 100 µM (inactive)
same,GI50,SF-268,> 100 µM (inactive)
same,GI50,786-0,> 100 µM (inactive)
same,GI50,U-251,> 100 µM (inactive)
same,GI50,SW-620,> 100 µM (inactive)
same,GI50,CAKI-1,> 100 µM (inactive)
same,GI50,HT-29,> 100 µM (inactive)
same,GI50,SK-MEL-2,> 100 µM (inactive)
same,GI50,NCI-H460,> 100 µM (inactive)
same,GI50,NCI-H226,> 100 µM (inactive)
same,GI50,OVCAR-4,> 100 µM (inactive)
same,GI50,MDA-MB-231,> 100 µM (inactive)
same,GI50,MCF7,> 100 µM (inactive)
same,GI50,HL-60,> 100 µM (inactive)
same,GI50,SF-295,> 100 µM (inactive)
same,GI50,SF-539,> 100 µM (inactive)
same,GI50,SN12C,> 100 µM (inactive)
same,GI50,KM12,> 100 µM (inactive)
same,GI50,OVCAR-3,> 100 µM (inactive)
same,GI50,A549,> 100 µM (inactive)
same,GI50,HCC 2998,> 100 µM (inactive)
same,GI50,SNB-19,> 100 µM (inactive)
same,GI50,SK-MEL-5,> 100 µM (inactive)
same,GI50,NCI/ADR-RES,> 100 µM (inactive)
same,GI50,NCI-H522,> 100 µM (inactive)
same,GI50,DU-145,> 100 µM (inactive)
same,GI50,COLO 205,> 100 µM (inactive)
same,GI50,NCI-H23,> 100 µM (inactive)
same,GI50,MDA-N,> 100 µM (inactive)
same,GI50,OVCAR-5,> 100 µM (inactive)
same,GI50,UACC-257,> 100 µM (inactive)
same,GI50,A498,> 100 µM (inactive)
same,GI50,SK-OV-3,> 100 µM (inactive)
same,GI50,SR,> 100 µM (inactive)
same,GI50,T47D,> 100 µM (inactive)
same,GI50,MDA-MB-435,> 100 µM (inactive)
same,GI50,SNB-75,> 100 µM (inactive)
same,GI50,BT-549,> 100 µM (inactive)
same,GI50,MOLT-4,> 100 µM (inactive)
same,GI50,OVCAR-8,> 100 µM (inactive)
same,GI50,UACC-62,> 100 µM (inactive)
same,GI50,RXF 393,> 100 µM (inactive)
same,GI50,HCT-15,> 100 µM
same,GI50,SK-MEL-28,> 100 µM (inactive)
same,GI50,M14,> 100 µM (inactive)
same,GI50,HOP-92,> 100 µM (inactive)
same,GI50,PC-3,> 100 µM (inactive)
O=P(O)(O)CN1CCN(CP(=O)(O)O)CCN(CP(=O)(O)O)CCN(CP(=O)(O)O)CC1,GI50,HCT-116,36.4 µM (inactive)
same,GI50,TK-10,55.5 µM (inactive)
same,GI50,HOP-62,> 100 µM (inactive)
same,GI50,EKVX,> 100 µM (inactive)
same,GI50,LOX IMVI,> 100 µM (inactive)
same,GI50,Hs-578T,> 100 µM (inactive)
same,GI50,ACHN,> 100 µM (inactive)
same,GI50,RPMI-8226,21.2 µM (inactive)
same,GI50,UO-31,> 100 µM (inactive)
same,GI50,IGROV-1,> 100 µM (inactive)
same,GI50,SF-268,> 100 µM (inactive)
same,GI50,786-0,> 100 µM (inactive)
same,GI50,U-251,45.6 µM (inactive)
same,GI50,SW-620,42.6 µM (inactive)
same,GI50,CAKI-1,> 100 µM (inactive)
same,GI50,HT-29,69 µM (inactive)
same,GI50,SK-MEL-2,32.8 µM (inactive)
same,GI50,NCI-H460,29 µM (inactive)
same,GI50,NCI-H226,> 100 µM (inactive)
same,GI50,OVCAR-4,> 100 µM (inactive)
same,GI50,CCRF-CEM,44.9 µM (inactive)
same,GI50,MDA-MB-231,> 100 µM (inactive)
same,GI50,MCF7,53.6 µM (inactive)
same,GI50,HL-60,25.4 µM (inactive)
same,GI50,SF-295,> 100 µM (inactive)
same,GI50,SF-539,70.5 µM (inactive)
same,GI50,SN12C,> 100 µM (inactive)
same,GI50,KM12,41.8 µM (inactive)
same,GI50,OVCAR-3,> 100 µM (inactive)
same,GI50,A549,58.5 µM (inactive)
same,GI50,HCC 2998,88.7 µM (inactive)
same,GI50,SNB-19,> 100 µM (inactive)
same,GI50,K562,31.8 µM (inactive)
same,GI50,SK-MEL-5,> 10 µM (inactive)
same,GI50,NCI/ADR-RES,> 100 µM (inactive)
same,GI50,NCI-H522,90.4 µM (inactive)
same,GI50,DU-145,> 100 µM (inactive)
same,GI50,COLO 205,32.4 µM (inactive)
same,GI50,NCI-H23,55.6 µM (inactive)
same,GI50,MDA-N,79.4 µM (inactive)
same,GI50,OVCAR-5,73.8 µM (inactive)
same,GI50,UACC-257,> 100 µM (inactive)
same,GI50,A498,62.5 µM (inactive)
same,GI50,SR,10.5 µM (inactive)
same,GI50,T47D,> 100 µM (inactive)
same,GI50,MDA-MB-435,> 100 µM (inactive)
same,GI50,SNB-75,> 100 µM (inactive)
same,GI50,BT-549,35.6 µM (inactive)
same,GI50,MOLT-4,41.3 µM (inactive)
same,GI50,OVCAR-8,77.6 µM (inactive)
same,GI50,UACC-62,46 µM (inactive)
same,GI50,RXF 393,47.4 µM (inactive)
same,GI50,HCT-15,27.8 µM
same,GI50,M14,> 100 µM (inactive)
same,GI50,HOP-92,38.3 µM (inactive)
same,GI50,PC-3,87.3 µM (inactive)
